# Values quoted from earlier work, collected in patent publication US7659300B2, “Monocyclic anilide spirolactam CGRP receptor antagonists” (Merck Sharp & Dohme Corp., priority 2004, dated 2010).
# No end group written: not given here.
# Assays:
# facial blood flow [1] = conditions: marmoset, electrical stimulation of the trigeminal ganglion (Doods et al. 2000)
# migraine = conditions: clinical studies, intravenously administered (Olesen et al. 2004)
# facial blood flow [2] = conditions: rat, trigeminal ganglion stimulation (Escott et al. 1995)
# middle meningeal artery = conditions: rats, electrical stimulation of the dura mater, prior administration (Williamson et al. 1997)
Compound,increase in facial blood flow (facial blood flow [1]),acute treatment of migraine (migraine),increase of facial blood flow (facial blood flow [2]),increase of the diameter of the middle meningeal artery (middle meningeal artery)
NCCCC[C@H](NC(=O)[C@@H](Cc1cc(Br)c(O)c(Br)c1)NC(=O)N1CCC(N2Cc3ccccc3NC2=O)CC1)C(=O)N1CCN(c2ccncc2)CC1 [BIBN4096BS],blocked,safe and effective acute treatment for migraine,,
"CGRP(8-37): a peptide CGRP antagonist; fragment of CGRP that lacks seven N-terminal amino acid residues (VTHRLAGLLSRSGGVVKNNFVPTNVGSKAF; ends and bridges not checked; UniProt P06881 90-119, looked up, fragment)",,,inhibited,blocked
